Test results as given in patent publication US6060487A, “Indanol compounds” (Adir et Compagnie, priority 1997, dated 2000).

Key:
[1] = target: T1, human 5-HT1A receptor (Homo sapiens, UniProt P08908); experiment: Affinity for human h5-HT1A receptors, competition with [^3 H]-8-OH-DPAT; assay type: binding
T1 construct: expressed in transfected cells; host or cells: CHO cells (membranes)
T1 sequence (P08908 1-422): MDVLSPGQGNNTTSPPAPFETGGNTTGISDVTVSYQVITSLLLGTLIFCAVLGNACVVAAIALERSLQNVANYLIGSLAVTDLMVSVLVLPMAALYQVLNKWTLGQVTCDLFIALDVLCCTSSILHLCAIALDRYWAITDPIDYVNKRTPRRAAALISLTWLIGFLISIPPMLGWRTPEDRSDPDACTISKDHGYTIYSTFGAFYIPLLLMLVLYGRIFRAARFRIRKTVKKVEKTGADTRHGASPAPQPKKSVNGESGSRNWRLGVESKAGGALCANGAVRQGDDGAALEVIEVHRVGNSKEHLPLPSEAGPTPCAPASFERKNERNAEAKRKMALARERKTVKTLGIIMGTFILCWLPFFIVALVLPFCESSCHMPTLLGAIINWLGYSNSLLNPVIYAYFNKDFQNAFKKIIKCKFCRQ
Procedure: The radioactivity retained on the filters is determined by liquid scintillation counting.

[2] = target: α1 receptors; experiment: Affinity for α1 receptors of rats, competition with [^3 H]-prazosin; assay type: binding; details: frontal cortex of rat, 25° C.
Procedure: The radioactivity retained on the filters is determined by liquid scintillation counting. The binding isotherms are analysed by non-linear regression using `PRISM` software (GraphPad Software Inc., S. Diego, USA) to determine IC50 values.

[3] = target: T2, pre-synaptic 5-HT1A receptors (Rattus norvegicus, UniProt P19327); experiment: In vivo recording of unitary extracellular electrical activity in the dorsal nucleus of the raphe in rats
T2 construct: in the Dorsal Nucleus of the Raphe in Rats (pre-synaptic 5-HT1A receptors); from tissue; host or cells: living anaesthetised rat, serotoninergic neurons of the dorsal nucleus of the raphe
T2 sequence (P19327 1-422): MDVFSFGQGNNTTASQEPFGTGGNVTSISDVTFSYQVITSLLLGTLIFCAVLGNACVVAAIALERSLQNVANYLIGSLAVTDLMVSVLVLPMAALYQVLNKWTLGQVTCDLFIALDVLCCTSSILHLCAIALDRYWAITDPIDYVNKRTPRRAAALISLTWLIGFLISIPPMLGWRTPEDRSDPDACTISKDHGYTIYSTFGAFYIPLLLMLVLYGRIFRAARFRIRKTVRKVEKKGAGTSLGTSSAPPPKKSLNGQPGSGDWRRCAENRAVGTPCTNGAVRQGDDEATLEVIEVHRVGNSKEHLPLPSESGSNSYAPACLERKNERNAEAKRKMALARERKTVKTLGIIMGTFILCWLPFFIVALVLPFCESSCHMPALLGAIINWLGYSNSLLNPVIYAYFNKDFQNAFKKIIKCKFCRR
Procedure: 1. "In Vivo" Recording of Unitary Extracellular Electrical Activity in the Dorsal Nucleus of the Raphe in Rats (pre-synaptic 5-HT1A receptors)
The administration of a 5-HT1A serotoninergic agonist decreases the discharge frequency of neurons in a dose-dependant manner. That effect is reversed by the selective 5-HT1A antagonist, WAY 100,635.
The rats are anaesthetised with chloral hydrate (400 mg/kg, i.p.) and placed in a stereotaxis apparatus (Unimecanique, France) after catheterisation of the femoral vein. The level of anaesthesia is maintained by i.p. administration of chloral hydrate every hour; the rectal temperature is maintained at 37±1° C. by means of a thermostatically controlled heated cover. A tungsten microelectrode (10 M.OMEGA., 1 μM) is inserted using an electronic microinsertion device (Unimecanique, France) into the dorsal nucleus of the raphe (AP: -7.8/bregma; L: 0.0; H: 5.0-6.5/dura; Paxinos and Watson Atlas, 1986). The potentials of the serotoninergic cells are characterised by their morphology (positive/negative biphase potentials, of a duration of less than 2.5 msec) and their slow and regular discharge rhythm of from 0.5 to 2.5 Hz. A single cell per animal is recorded.
After a period of ≥5 min (basal activity) and a first injection of carrier (distilled water to which a few drops of dilute lactic acid have been added, pH adjusted to 5 with 1N NaOH), the compound of the invention is administered intravenously in cumulatively increasing doses at intervals of 5 minutes.
Acquisition of the data is effected by the software Spike2 (Cambridge Electronic Design, England). The discharge frequency is measured over one minute at the maximum variation between each injection and is expressed as a percentage variation in relation to the basal activity (average of the 5 minutes preceding the first treatment) defined as 100%. The ID50 is calculated using a simple linear regression method with repeated measurements.

[4] = target: T3, post-synaptic 5-HT1A receptors (Rattus norvegicus, UniProt P19327); experiment: Body temperature test in rats; assay type: in vivo
T3 construct: Body Temperature Test in Rats (post-synaptic 5-HT1A receptors); from tissue; host or cells: living rat (whole animal)
T3 sequence (P19327 1-422): T2 sequence (P19327 1-422)
Text: 2. Body Temperature Test in Rats (post-synaptic 5-HT1A receptors)
That effect is reversed by 5-HT1A antagonists,as has been shown by M. J. Millan (J. Pharmacol. Exp. Ther., 1993, 264, 1346-1376). According to the protocol described by that author, compounds of the invention which when administered on their own bring about a decrease in body temperature will be identified as post-synaptic 5-HT1A serotoninergic agonists. On the other hand, compounds of the invention that reverse the hypothermia induced by the prototypical 5-HT1A agonist 8-OH-DPAT will be identified as post-synaptic 5-HT1A antagonists.

[5] = Ultrasonic vocalisation test in rats; assay type: in vivo, Male Wistar rats; details: for duration of the ultrasonic vocalisations: mean ± s.e.m.
Text: 3. Ultrasonic Vocalisation Test in Rats
When a rat is placed in an environment previously associated with an unpleasant experience (electric shocks to the paws), its anxiety is shown by the emission of inaudible cries (or ultrasonic vocalisations).
Standard cages (Coulbourn Instruments), placed in sound-absorbing ventilated boxes, are fitted with a floor composed of electrifiable metal bars (shock generator and scrambler Med Associates Inc) and with a microphone located in the centre of the ceiling. The ultrasonic noises are converted into an audible range (bat-detector Buitenbedrijf). The signals modified in that manner are filtered and then processed (RTS software, Engineering Design). The spectrograms obtained are recorded on DAT tapes.
Male Wistar rats weighing 180-200 g on their arrival are placed in cages of four with free access to water and food from five days before the start of the study until the end of the study. The procedure employed is divided into three successive stages separated by 24 hours, called training, selection and test. During the training period, the animals are placed individually into cages where they receive six electric shocks (0.8 mA, 8 s) distributed randomly over a period of seven minutes. Selection comprises placing each animal in a cage for two minutes where it receives a single shock and putting it back in the cage thirty minutes later to record the ultrasonic vocalisations for a period of ten minutes; those animals in which the duration of the vocalisations is less than 90 seconds are excluded from the remainder of the experiment. The test phase proceeds in a similar manner to the selection stage, except that the compounds or the carrier are administered at the end of the two-minute period.

[6] = target: T3, post-synaptic 5-HT1A receptors; details: M. J. Millan, 1993; cited from earlier work

Compound | Ki [1] | Ki [2] | discharge frequency, percentage in relation to the basal activity (100%) ([3]; 0.25 μg/kg i.v., n = 3, mean ± standard error of the mean) | discharge frequency, percentage in relation to the basal activity (100%) ([3]; 0.5 μg/kg i.v., n = 3, mean ± standard error of the mean) | discharge frequency, percentage in relation to the basal activity (100%) ([3]; 1 μg/kg i.v., n = 3, mean ± standard error of the mean) | ED50 ([3]; intravenous, rat dorsal raphe, read-out: ID50 (decrease of discharge frequency)) | character at pre-synaptic 5-HT1A receptors ([3]; pre-synaptic, rat, i.v.) | discharge frequency, percentage in relation to the basal activity (100%), after WAY 100,635 ([3]; reversal by WAY 100,635 31 μg/kg after cumulative Example 6 doses, n = 3, mean ± standard error of the mean) | character at post-synaptic 5-HT1A receptors ([4]; post-synaptic, s.c.) | ED50 ([4]; sc, read-out: ID50 (reversal of the effects of 8-OH-DPAT, hypothermia)) | duration of the ultrasonic vocalisations ([5]; 0.04 mg/kg s.c., n = 6) | duration of the ultrasonic vocalisations ([5]; 0.16 mg/kg s.c., n = 3, ** p < 0.01 vs carrier (Dunnett test)) | duration of the ultrasonic vocalisations ([5]; 2.5 mg/kg s.c., n = 5, ** p < 0.01 vs carrier (Dunnett test)) | effect on duration of the vocalisations (anxiolytic activity) ([5]; 0.16 and 2.5 mg/kg s.c.) | effect on body temperature [6]
O[C@@H]1c2ccccc2C[C@H]1N1CCN(c2cccc3c2OCCO3)CC1 (relative stereo) [Example 6, Trans-2-[4-(2,3-dihydro[1,4]benzodioxin-5-yl)piperazin-1-yl]indan-1-ol] | 1.73 nM | 932 nM | 73.84% | 52.23% | 36.16% | 0.00059 mg/kg | behaves like a 5-HT1A serotoninergic agonist at the pre-synaptic level | 140.48% | behaves like a post-synaptic 5-HT1A serotoninergic antagonist | 1.3 mg/kg | 170 ± 62 s | 28 ± 14 s | 8 ± 8 s | brings about a reduction in the duration of the vocalisations, indicating its anxiolytic activity | 
CCCN(CCC)C1CCc2cccc(O)c2C1 (stereo not drawn) [Example 8-OH-DPAT] |  |  |  |  |  |  |  |  |  |  |  |  |  |  | brings about a decrease in body temperature in a dose-dependent manner
